Laboratory results taken from patent publication US8435562B2 (XenoPort, Inc., priority 2009, dated 2013).

Test: Powder X-ray diffraction analysis of anhydrous-to-hydrate form conversion (granules, tablets)
Format: physicochemical
Protocol: Anhydrous (2R)-2-phenylcarbonyloxypropyl (2S)-2-amino-3-(3,4-dihydroxyphenyl)propanoate mesylate (138.6 g) and hydroxypropylmethyl cellulose (1.4 g) (Methocer HPMC E4M, Dow Chemical) were weighed and sieved through an 18-mesh screen. The screened materials were placed into a high shear wet granulator (KG-5 high sheer blender, 5 L bowl, Key International) and pre-blended for 2 min. […] The material was blended for ca. 10-20 min at an impeller speed of 250 rpm and a chopper speed of 2,000 rpm, and a water spray rate of 2 g/min. After granulation the wet granules were milled through a 16-mesh screen with a brush. The milled wet granules were placed in a dryer (UniGlatt Fluid Bed Dryer, Glatt GmbH) and dried for 24 min at an inlet temperature of 65° C. with airflow adjusted at 8-10 SCFM. The dried granules were milled by manually pressing the granules through a screen.
Powder X-ray diffraction (PXRD) analysis was performed using a PANalytical X′Pert Pro X-ray diffractometer. The X-ray source was Cu kα1 with output voltage of 45 kV and current of 40 mA. The instrument employed para-focusing Bragg-Brentano geometry with incident divergence and scattering slits set at 1/16° and ⅛°, respectively. Soller slits with a 0.04-mm radius were used for both the incident and diffracted beams to remove axial divergence. Powder samples (9-12 mg) were gently pressed onto a single crystal silicon sample holder to form a smooth surface, and samples were spun at 8 sec/revolution throughout the data acquisition process. The samples were scanned from 2° to 40°(2θ°) with a step size of 0.017° (2θ angle) and a scan speed of 0.067°/sec. Data acquisition was controlled and analyzed with X′Pert Data Collector Software (version 2.2d) and X′Pert Data Viewer (version 1.2c), respectively.

Crystal form by PXRD after high shear wet granulation (with 1% sodium lauryl sulfate): did not transform to the hydrate
Crystal form by PXRD after high shear wet granulation (without sodium lauryl sulfate, water content of 9 wt-% and 15 wt-% (FIG. 3 patterns B and C)): characteristic of the hydrated form
SMILES: CS(=O)(=O)O.C[C@H](COC(=O)[C@@H](N)Cc1ccc(O)c(O)c1)OC(=O)c1ccccc1 [compound 1, (2R)-2-Phenylcarbonyloxypropyl (2S)-2-amino-3-(3,4-dihydroxyphenyl)propanoate mesylate]
Crystal form by PXRD after high shear wet granulation (without sodium lauryl sulfate, 7 wt-% water): a combination of the anhydrous and hydrated forms
Crystal form by PXRD after high shear wet granulation (without sodium lauryl sulfate, 15 wt-% water): predominantly crystalline (2R)-2-phenylcarbonyloxypropyl (2S)-2-amino-3-(3,4-dihydroxyphenyl)propanoate mesylate, hydrate
